Among the data in PubChem BioAssay (NCI) are GI50 and TGI values, retold here.

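Values below derive from 48-hour exposures of cells grown in 96-well plates, with endpoints linearly interpolated between the two concentrations bracketing the appropriate inhibition level. GI50 marks 50% less growth. TGI marks complete inhibition of growth.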 Where only a bound is given, the exact number is not on record here.

Experiment in all cases: DTP human tumour cell line panel, 48 h
Experiment [1] has as its system 786-0 renal.
Experiment [2] relates to ACHN renal.
Experiment [3] deals with IGROV1 ovarian.
Experiment [4] deals with NCI-H23 lung.
Experiment [5] concerns OVCAR-5 ovarian.
Experiment [6] has as its system RPMI-8226 leukemia.
The subject of experiment [7] is SF-268 CNS.
Experiment [8] relates to SK-OV-3 ovarian.
Experiment [9] concerns SNB-19 CNS.
In experiment [10] the test system is UO-31 renal.

Turning to `CCN(CC)CCCCNc1ncc2cc(-c3cc(OC)cc(OC)c3)c(NC(=O)NC(C)(C)C)nc2n1`, the GI50 is 5.42 µM in experiment [1]; 3.92 µM in [2]; 3640 nM in experiment [3]; 11100 nM in [4]; 15500 nM in experiment [5]; 4920 nM in [6]. In addition, the GI50 in experiment [7] was 5470 nM; in [8], 4.91 µM; in [9], 13700 nM; in [10], 1370 nM. For the same molecule, the TGI in experiment [1] is 19.3 µM; in experiment [2], 16.4 µM; in experiment [3], 16.3 µM; in [4] it was 30.1 µM; in experiment [5], 31.4 µM; in experiment [6], 27.9 µM. For the same molecule, the TGI is 21.1 µM in experiment [7], 18.2 µM in experiment [8], 28.7 µM in [9] and 15.5 µM in experiment [10].
Turning to `Cc1[nH]nc2ccc3nc(-c4ccc5[nH]ncc5c4)c4c(c3c12)CCCC4`, the GI50 in experiment [1] is 1.19 µM; in experiment [2], 0.367 µM; in [3], 492 nM; in experiment [4], 2220 nM; in experiment [5], 2530 nM; in experiment [6] it was 1510 nM. In addition, the GI50 in experiment [7] is 1970 nM; in experiment [8] it was 0.243 µM; in experiment [9], 2620 nM; in experiment [10], 802 nM. In addition, the TGI in [1] was found to be 12.9 µM; in experiment [2], 12.9 µM; in experiment [3], 7.14 µM; in experiment [4] it was 11.2 µM; in [5] it was 13.9 µM; in experiment [6], 6.65 µM. The concentration for total growth inhibition (TGI) in [7] came out at 17.8 µM; in experiment [8] it was 0.94 µM; in [9], 12.1 µM; in [10] it was 5.99 µM.
Turning to `N#Cc1c(N)nc(NCc2ccccc2)c(C#N)c1-c1ccccc1Cl`, the GI50 in experiment [1] is 13.4 µM; in experiment [2], 5.73 µM; in experiment [3], 5080 nM; in experiment [4], 17500 nM; in experiment [5], 26800 nM; in experiment [6], 48600 nM. Also, the GI50 in [7] is 12600 nM; in experiment [8] it was 62.7 µM; in experiment [9], 23400 nM; in [10], 38100 nM. For the same molecule, the TGI in [1] was 36.2 µM; in experiment [2], 62.7 µM; in experiment [3] it was 41.1 µM; in experiment [4] it was more than 100 µM; in [5], more than 100 µM; in experiment [6] it was more than 100 µM. In addition, the TGI in experiment [7] was 58.5 µM; in [8], more than 100 µM; in [9], more than 100 µM; in experiment [10], more than 100 µM.
Consider `COc1ccc(CCN2CCC(Nc3nc4ccccc4n3Cc3ccc(F)cc3)CC2)cc1`, for which the GI50 was 1.46 µM in experiment [1]; 1.55 µM in [2]; 2010 nM in [3]; 1690 nM in [4]; 1660 nM in experiment [5]; 1780 nM in experiment [6]. For the same molecule, the GI50 in experiment [7] is 1560 nM; in experiment [8], 1.9 µM; in experiment [9], 1770 nM; in experiment [10] it was 1290 nM. The TGI in experiment [1] amounted to 2.77 µM; in experiment [2] it was 2.93 µM; in experiment [3], 4.27 µM; in experiment [4], 3.5 µM; in experiment [5] it was 3.7 µM; in [6] it was 4.73 µM. Further, the TGI came out at 2.95 µM in [7], 3.44 µM in [8], 3.93 µM in experiment [9] and 2.62 µM in experiment [10].
For the molecule `COc1ccc2cc(Cn3cc[n+](Cc4ccc5ccccc5c4)c3)ccc2c1`, the GI50 in experiment [1] was 4.72 µM; in experiment [2], 14.3 µM; in experiment [3], 1750 nM; in experiment [4] it was 2370 nM; in experiment [5], 2700 nM; in experiment [6], 1330 nM. The GI50 in experiment [7] is 2530 nM; in experiment [8], 3.19 µM; in [9], 1930 nM; in experiment [10], 12700 nM. Further, the total growth inhibition concentration (TGI) was 19.6 µM in experiment [1]; 30.4 µM in experiment [2]; 4.87 µM in experiment [3]; 12 µM in experiment [4]; 12.5 µM in experiment [5]; 3.65 µM in [6]. Moreover, the TGI in experiment [7] was 11.8 µM; in experiment [8], 12.6 µM; in experiment [9], 6.65 µM; in experiment [10] it was 32.1 µM.
Turning to `CC(C(=O)O)/C(=C\c1ccc2c(c1)OCO2)C(=O)O` (stereo not given), the total growth inhibition concentration (TGI) was more than 100 µM in [1]; more than 100 µM in experiment [2]; more than 100 µM in experiment [3]; more than 100 µM in [4]; more than 61.5 µM in experiment [5]; more than 100 µM in experiment [6]. The TGI in [7], in experiment [8], in [9] and in experiment [10] was more than 100 µM throughout.
As for `CC(C)NC(=O)OCc1c(COC(=O)NC(C)C)c(-c2ccc(Cl)c(Cl)c2)n2c1CCC2`, the TGI in experiment [1] amounted to 44.5 µM; in experiment [2], 43.6 µM; in experiment [3] it was 70.6 µM; in experiment [4], 60.9 µM; in experiment [5] it was 64.1 µM; in [6], 73.3 µM. Further, the TGI in experiment [7] is 67.6 µM; in [8], more than 76.8 µM; in experiment [9], 81 µM; in [10] it was 63.5 µM.
For the molecule `CSC1=Nc2c(c(C)c(C)n2COC(CO)CO)C2=NC(=O)CC(C)N12` (stereo not given), the GI50 is more than 100 µM in experiment [1]; more than 100 µM in [2]; more than 100000 nM in experiment [3]; more than 100000 nM in experiment [4]; more than 100000 nM in [5]; more than 100000 nM in experiment [6]. Also, the GI50 in experiment [7] was more than 100000 nM; in experiment [8] it was more than 100 µM; in experiment [9] it was more than 100000 nM; in experiment [10], more than 100000 nM. Besides, the TGI in [1], in experiment [2], in experiment [3], in experiment [4], in experiment [5] and in experiment [6] was more than 100 µM each time. Further, the TGI in [7], in experiment [8], in experiment [9] and in [10] was more than 100 µM throughout.
